This is an account of results in ChEMBL document CHEMBL5143521, “Identification of a selective BRD4 PROTAC with potent antiproliferative effects in AR-positive prostate cancer based on a dual BET/PLK1 inhibitor” (Eur J Med Chem, 2022).

In general, IC50 refers to the point on the concentration scale where inhibition reaches its midpoint. The term inhibition denotes how much of the control response was suppressed.

Assay [1] deals with Serine/threonine-protein kinase PLK1 (Homo sapiens, UniProt P53350). Description: Inhibition of recombinant full length human PLK1 using casein as substrate incubated for 40 mins in presence of [gamma-33P]-ATP by radiometric scintillation counting method.
Assay [2] concerns the target Bromodomain-containing protein 4 (Homo sapiens, UniProt O60885). Description: Inhibition of BRD4 (unknown origin) by alpha-screen assay. In general terms: Bead proximity is the source of the signal in Alpha formats.
In a further assay the test system is MV4-11. Description: Antiproliferative activity against human MV4-11 cells assessed as reduction in cell viability measured after 4 days by MTT assay. It is filed as functional, cell-based. Particulars: MV4-11, 96 h.
Assay [3] has as its system DU-145. Description: Antiproliferative activity against AR-negative human castration resistant DU-145 cells assessed as reduction in cell viability measured after 4 days by MTT assay. It is filed as functional, cell-based. To be noted: DU-145, 96 h. Background: Tetrazolium dyes change colour on reduction, which living cells bring about.
For assay [4], the system named is PC-3. Description: Antiproliferative activity against AR-negative human castration resistant PC-3 cells assessed as reduction in cell viability measured after 4 days by MTT assay. It is filed as functional, cell-based. Particulars: PC-3, 96 h.
The test system of assay [5] is VCaP. In words: Antiproliferative activity against AR-positive human VCaP cells assessed as reduction in cell viability measured after 4 days by MTT assay. The class given is functional, cell-based. Particulars: 96 h.
Assay [6] relates to LNCaP. In words: Antiproliferative activity against AR-positive harmone sensitive human LNCaP cells assessed as reduction in cell viability measured after 4 days by MTT assay. The class given is functional, cell-based. Particulars: 96 h.
Assay [7] has as its system CWR22R. Description: Antiproliferative activity against AR-positive human 22Rv1 cells assessed as reduction in cell viability measured after 4 days by MTT assay. Particulars: 22Rv1, 96 h. The class given is functional, cell-based.
Assay [8] has as its system CWR22R. In words: Inhibition of colony formation in AR-positive human 22Rv1 cells at 1 nM measured after 12 days by crystal violet staining based assay. The class given is functional, cell-based. To be noted: time 12.0 day.
Assay [9] has as its system PC-3. Description: Inhibition of colony formation in AR-negative human castration resistant PC-3 cells at 1 nM measured after 12 days by crystal violet staining based assay. It is filed as functional, cell-based. To be noted: time 12.0 day.
Assay [10] deals with DU-145. In words: Inhibition of colony formation in AR-negative human castration resistant DU-145 cells at 1 nM measured after 12 days by crystal violet staining based assay. It is filed as functional, cell-based. To be noted: time 12.0 day.
In assay [11] the test system is LNCaP. In words: Antiproliferative activity against AR-positive harmone sensitive human LNCaP cells assessed as reduction in cell viability at 1 nM incubated for 3 days followed by compound washout and measured after 8 days. It is filed as functional. To be noted: 72 h, time 3 day.
For assay [12], the system named is CWR22R. In words: Antiproliferative activity against AR-positive human 22Rv1 cells assessed as reduction in cell viability at 1 nM incubated for 3 days followed by compound washout and measured after 8 days. The class given is functional. Particulars: 22Rv1, 72 h, time 3 day.
The test system of assay [13] is DU-145. Description: Antiproliferative activity against negative human castration resistant DU-145 cells assessed as reduction in cell viability at 1 nM incubated for 3 days followed by compound washout and measured after 8 days. The class given is functional, cell-based. To be noted: time 3.0 day.
Assay [14] has as its system CWR22R. In words: Induction of cell cycle arrest in AR-positive human 22Rv1 cells assessed as accumulation of cells at G2/M phase at 1 to 3 uM measured after 72 hrs by flow cytometry analysis. The class given is functional, cell-based. To be noted: dose 1-3 µM. A general note: Flow cytometry measures light scatter and fluorescence of single cells or particles in a stream.

In assay [15] the test system is CWR22R. Description: Induction of cell cycle arrest in AR-positive human 22Rv1 cells assessed as downregulation of CDK2 expression at 1 to 3 uM measured after 72 hrs by Western blot analysis. It is filed as functional, cell-based. Particulars: dose 1-3 µM.
Assay [16] has as its system CWR22R. Description: Induction of cell cycle arrest in AR-positive human 22Rv1 cells assessed as downregulation of CDK6 expression at 1 to 3 uM measured after 72 hrs by Western blot analysis. The class given is functional, cell-based. To be noted: dose 1-3 µM.
Assay [17] relates to CWR22R. Description: Induction of cell cycle arrest in AR-positive human 22Rv1 cells assessed as downregulation of cyclin D1 expression at 1 to 3 uM measured after 72 hrs by Western blot analysis. Particulars: dose 1-3 µM. The class given is functional, cell-based.
In assay [18] the test system is CWR22R. In words: Induction of cell cycle arrest in AR-positive human 22Rv1 cells assessed as downregulation of cyclin E expression at 1 to 3 uM measured after 72 hrs by Western blot analysis. It is filed as functional, cell-based. Particulars: dose 1-3 µM.
In assay [19] the test system is CWR22R. In words: Induction of cell cycle arrest in AR-positive human 22Rv1 cells assessed as upregulation of cyclin B1 expression at 1 to 3 uM measured after 72 hrs by Western blot analysis. The class given is functional, cell-based. To be noted: dose 1-3 µM.
Assay [20] addresses Protein cereblon/Bromodomain-containing protein 4 (Homo sapiens) (UniProt O60885+Q96SW2). In words: Protac activity at BRD4/CRBN in human VCaP cells assessed as degradation of BRD4 by measuring downregulation of BRD4 expression level at 10 nM incubated for 24 hrs by immunoblotting analysis. The class given is cell-based.
Assay [21] concerns VCaP. Description: Inhibition of c-Myc expression level in human VCap cells at 10 nM incubated for 24 hrs by immunoblotting analysis. It is filed as functional, cell-based.

Calls of active or inactive are those of the source. No cut-off for these calls is given here.

Serine/threonine-protein kinase PLK1, sequence (P53350 whole entry): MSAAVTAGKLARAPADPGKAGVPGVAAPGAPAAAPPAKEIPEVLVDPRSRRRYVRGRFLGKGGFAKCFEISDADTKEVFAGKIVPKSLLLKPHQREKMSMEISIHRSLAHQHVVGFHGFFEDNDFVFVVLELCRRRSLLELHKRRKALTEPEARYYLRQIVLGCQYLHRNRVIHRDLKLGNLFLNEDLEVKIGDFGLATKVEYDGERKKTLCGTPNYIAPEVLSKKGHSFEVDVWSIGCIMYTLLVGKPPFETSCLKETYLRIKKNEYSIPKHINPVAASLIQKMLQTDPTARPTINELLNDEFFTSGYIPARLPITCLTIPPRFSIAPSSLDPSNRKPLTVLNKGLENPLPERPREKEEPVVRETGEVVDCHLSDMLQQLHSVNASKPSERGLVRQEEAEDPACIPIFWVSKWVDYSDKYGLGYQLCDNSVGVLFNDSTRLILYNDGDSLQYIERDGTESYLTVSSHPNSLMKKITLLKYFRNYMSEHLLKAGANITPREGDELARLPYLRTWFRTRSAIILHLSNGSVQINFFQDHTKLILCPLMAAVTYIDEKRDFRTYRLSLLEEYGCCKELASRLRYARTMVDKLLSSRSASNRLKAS
Protein cereblon/Bromodomain-containing protein 4 (Homo sapiens), sequence (Q96SW2 whole entry, looked up, other chains not shown): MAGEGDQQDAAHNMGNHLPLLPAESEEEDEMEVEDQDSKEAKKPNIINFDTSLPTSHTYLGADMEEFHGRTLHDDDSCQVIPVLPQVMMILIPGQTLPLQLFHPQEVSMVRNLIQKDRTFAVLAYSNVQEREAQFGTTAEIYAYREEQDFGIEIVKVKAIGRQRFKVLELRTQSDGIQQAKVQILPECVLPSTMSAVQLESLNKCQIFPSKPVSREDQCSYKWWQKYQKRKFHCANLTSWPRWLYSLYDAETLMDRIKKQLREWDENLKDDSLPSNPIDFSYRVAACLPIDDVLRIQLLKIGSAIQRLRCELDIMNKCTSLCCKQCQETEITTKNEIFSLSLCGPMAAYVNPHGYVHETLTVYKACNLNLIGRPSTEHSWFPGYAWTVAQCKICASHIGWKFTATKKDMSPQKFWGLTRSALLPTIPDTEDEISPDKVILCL

As to `CC[C@@H]1c2nnc(C)n2-c2cnc(Nc3ccc(C(=O)NC4CCN(CCCCCCCCCCCOc5cccc6c5C(=O)N(C5CCC(=O)NC5=O)C6=O)CC4)cc3OC)nc2N1CC1CCCCC1` (some centres not stated), the IC50 in assay [1] came out at 3.82 µM; in assay [2], 0.379 µM; with MV4-11, 0.188 µM.

As to `CC[C@@H]1c2nnc(C)n2-c2cnc(Nc3ccc(C(=O)NC4CCN(C(=O)CNc5cccc6c5CN(C5CCC(=O)NC5=O)C6=O)CC4)cc3OC)nc2N1CC1CCCCC1` (some centres not stated), the IC50 in [1] was determined as 1.98 µM; in assay [2], 0.259 µM; in the assay with MV4-11 it was 0.018 µM.

Consider `CC[C@@H]1c2nnc(C)n2-c2cnc(Nc3ccc(C(=O)NC4CCN(C(=O)CCCCCOc5cccc6c5C(=O)N(C5CCC(=O)NC5=O)C6=O)CC4)cc3OC)nc2N1CC1CCCCC1` (some centres not stated), for which the IC50 in assay [1] was determined as 1.23 µM; in assay [2], 0.435 µM; with MV4-11 it was 0.007 µM.

Take `CC[C@@H]1c2nnc(C)n2-c2cnc(Nc3ccc(C(=O)NC4CCN(CCCCCCCCCOc5cccc6c5C(=O)N(C5CCC(=O)NC5=O)C6=O)CC4)cc3OC)nc2N1CC1CCCCC1` (some centres not stated): the IC50 in [1] was 2.13 µM; in [2], 0.225 µM; with MV4-11, 0.036 µM.

On to `CC[C@@H]1c2nnc(C)n2-c2cnc(Nc3ccc(C(=O)NC4CCN(CCCCCOc5cccc6c5C(=O)N(C5CCC(=O)NC5=O)C6=O)CC4)cc3OC)nc2N1CC1CCCCC1` (some centres not stated), for which the IC50 was 1.12 µM in assay [1], 0.151 µM in assay [2] and 0.021 µM in the assay on MV4-11.

Regarding `CC[C@@H]1c2nnc(C)n2-c2cnc(Nc3ccc(C(=O)NC4CCN(C(=O)CCCOc5cccc6c5C(=O)N(C5CCC(=O)NC5=O)C6=O)CC4)cc3OC)nc2N1CC1CCCCC1` (some centres not stated), the IC50 in [1] was 0.788 µM; in [2], 0.738 µM; with MV4-11, 0.018 µM.

As to `CC[C@@H]1c2nnc(C)n2-c2cnc(Nc3ccc(C(=O)NC4CCN(C(=O)CCCCCNc5cccc6c5CN(C5CCC(=O)NC5=O)C6=O)CC4)cc3OC)nc2N1CC1CCCCC1` (some centres not stated), the IC50 in assay [1] came to 1.21 µM; in assay [2], 0.288 µM; with MV4-11, 0.01 µM.

For the compound `CC[C@@H]1c2nnc(C)n2-c2cnc(Nc3ccc(C(=O)NC4CCN(C)CC4)cc3OC)nc2N1CC1CCCCC1`, the IC50 was determined as 1.47 µM in the assay on DU-145 [3]; 1.4 µM in the assay with PC-3 [4]; 0.628 µM in the assay with VCaP [5]; 1.45 µM in the assay on LNCaP [6]; 0.58 µM with CWR22R [7]. In addition, the inhibition entry in the assay with CWR22R [8], with PC-3 [9], with DU-145 [10] and with DU-145 [13] was “Active” in each case. Further, the inhibition at 0.001 µM in the assay with LNCaP [11] and in the assay on CWR22R [12] was 100% each time. Also, the outcome with CWR22R [14], with CWR22R [15], with CWR22R [16], in the assay on CWR22R [17], in the assay with CWR22R [18] and with CWR22R [19] was Active.

For the compound `CC[C@@H]1c2nnc(C)n2-c2cnc(Nc3ccc(C(=O)NC4CCN(CCCCCCCCCCOc5cccc6c5C(=O)N(C5CCC(=O)NC5=O)C6=O)CC4)cc3OC)nc2N1CC1CCCCC1` (some centres not stated), the IC50 in [1] was 5.57 µM; in [2], 0.284 µM; in the assay on MV4-11 it was 0.153 µM.

As to `CC[C@@H]1c2nnc(C)n2-c2cnc(Nc3ccc(C(=O)NC4CCN(CCCCCCOc5cccc6c5C(=O)N(C5CCC(=O)NC5=O)C6=O)CC4)cc3OC)nc2N1CC1CCCCC1` (some centres not stated), the IC50 in assay [1] is 2.43 µM; in assay [2], 0.121 µM; in the assay on MV4-11 it was 0.184 µM.

`CC[C@@H]1c2nnc(C)n2-c2cnc(Nc3ccc(C(=O)NC4CCN(C(=O)CCCCOc5cccc6c5C(=O)N(C5CCC(=O)NC5=O)C6=O)CC4)cc3OC)nc2N1CC1CCCCC1` (some centres not stated): the IC50 was 1.19 µM in [1], 0.37 µM in [2] and 0.013 µM with MV4-11.

Regarding `CC[C@@H]1c2nnc(C)n2-c2cnc(Nc3ccc(C(=O)NC4CCN(CCCCCCCCOc5cccc6c5C(=O)N(C5CCC(=O)NC5=O)C6=O)CC4)cc3OC)nc2N1CC1CCCCC1` (some centres not stated), the IC50 in assay [1] came out at 5.14 µM; in assay [2], 0.344 µM; in the assay with MV4-11, 0.085 µM.

Take `CC[C@@H]1c2nnc(C)n2-c2cnc(Nc3ccc(C(=O)NC4CCN(CCCCNC(=O)COc5cccc6c5C(=O)C(C5CCC(=O)NC5=O)C6=O)CC4)cc3OC)nc2N1CC1CCCCC1` (some centres not stated): the results for the IC50 (in [1]; in [2]; in the assay with MV4-11) were 0.31 µM, 0.219 µM and 0.359 µM, respectively.

As for `CC[C@@H]1c2nnc(C)n2-c2cnc(Nc3ccc(C(=O)NC4CCN(C(=O)CCCCNc5cccc6c5CN(C5CCC(=O)NC5=O)C6=O)CC4)cc3OC)nc2N1CC1CCCCC1` (some centres not stated), the IC50 in [1] was found to be 1.34 µM; in assay [2], 0.311 µM; with MV4-11, 0.753 µM.

Regarding `CC[C@@H]1c2nnc(C)n2-c2cnc(Nc3ccc(C(=O)NC4CCN(C(=O)CCCCCCC(=O)Nc5cccc6c5CN(C5CCC(=O)NC5=O)C6=O)CC4)cc3OC)nc2N1CC1CCCCC1` (some centres not stated), the IC50 in assay [1] is 0.652 µM; in assay [2], 0.19 µM; with MV4-11, 0.671 µM.

For the compound `CC[C@@H]1c2nnc(C)n2-c2cnc(Nc3ccc(C(=O)NC4CCN(CCCCCCCOc5cccc6c5C(=O)N(C5CCC(=O)NC5=O)C6=O)CC4)cc3OC)nc2N1CC1CCCCC1` (some centres not stated), the IC50 in [1] was determined as 1.25 µM; in assay [2], 0.209 µM; in the assay with MV4-11, 0.008 µM. The result in assay [20] was Active. The inhibition entry in the assay with VCaP [21] was “Active”.

Regarding `CC[C@@H]1c2nnc(C)n2-c2cnc(Nc3ccc(C(=O)NC4CCN(C(=O)CCCCCCOc5cccc6c5C(=O)N(C5CCC(=O)NC5=O)C6=O)CC4)cc3OC)nc2N1CC1CCCCC1` (some centres not stated), the IC50 in assay [1] was 1.84 µM; in [2], 0.658 µM; in the assay on MV4-11, 0.01 µM.
